No end group written: not given here.
Tested on: Caco-2 monolayers
Test: Apical to basolateral transport of milk peptides across Caco-2 monolayers (LC-MS/MS of basolateral medium)
Format: in vitro ADME, human
Details: 2.5 h
Experimental: The human colorectal adenocarcinoma cell line, Caco-2, was obtained from DSMZ (Braunschweig, Germany). The cells were grown to 50–60% confluence in Dulbecco’s Modified Eagle Medium (DMEM) Glutamax cell culture medium, supplemented with 10% heat-inactivated fetal bovine serum, 100 units/mL of penicillin and 100 μg/mL of streptomycin (all from Invitrogen, Carlsbad, CA, USA) in a humidified 5% CO2/95% air atmosphere at 37 °C. The cells used in the experiments were between passages 30 and 40.
The Caco-2 cells used for transport studies were seeded in polyethylene terephthalate culture inserts, with a pore size of 0.4 μm and a growth area of 0.33 cm^2 at a density of approximately 25,000 cells/insert. The Caco-2 cells were grown for three weeks on the porous membrane before they were used for transepithelial transport. The integrity of the monolayers was confirmed by measuring the TEER using a Millicell ERS-2 volt ohmmeter. Only Caco-2 monolayers with TEER values above 400 Ω cm^2 were used for the transport analysis.
Following the TEER value measurement, the Caco-2 and PBEC monolayers were gently washed twice with phosphate-buffered saline, and the transport medium (Hanks’ Balanced Salt solution supplemented with 10 mM of HEPES) was added to the apical and basolateral compartments. The inserts were incubated for 15 min or 2.5 h with the purified milk peptides (0.1 mg/mL) or the synthetic PIGSENSEKTTMPLW peptide (2 µg/mL), after which medium from the apical and basolateral compartments were collected for liquid chromatography tandem mass spectrometry (LC-MS/MS) analysis. Inserts incubated with a medium without peptides served as the control in the transport experiments. Membrane integrity was validated by addition of D-[1-^14C]-Mannitol (3.5 µM, 56.8 mCi/mmol) (Perkin Elmer, Waltham, MA, USA) to the upper chamber of the culture inserts with or without milk peptides for 2.5 h. The passive permeability experiments were performed on four or five individual culture inserts. Basolateral samples were mixed with Ultima Gold liquid scintillation fluid (Perkin Elmer) and counted in a Tri-Carb 2810 TR scintillation counter (Perkin Elmer). The apparent permeability coefficient (Papp, cm/s) was determined as Papp = (dQ/dt)/(AC0) where dQ/dt is the steady state flux (cpm/s), A is the surface area of the cell culture insert membrane and C0 is the initial concentration in the apical compartment (cpm/mL).
LC-MS/MS analysis was performed on a TripleTOF 6600 mass spectrometer equipped with an Exigent nanoLC 415 system (AB Sciex, Les Ulis, France). All samples were micro-purified using 3 M Empore C18 discs packed in pipette tips. The lyophilized samples were dissolved in 0.1% formic acid, injected on a trap column (2 cm × 100 µm inner diameter) and separated on an analytical column packed in-house in a pulled emitter (15 cm × 75 µm inner diameter). All columns were packed with ReproSil-Pur C18-AQ 3 µm resin (courtesy of Dr. Marisch, Ammerbuch-Entringen, Germany). Peptides were eluted directly into the mass spectrometer with a linear gradient from 5 to 35% solvent B (0.1% formic acid in acetonitrile) for 20 min with a flowrate of 250 nL/min, followed after 10 min with 100% solvent B. Data files were converted to Mascot Generic Format using the Raw Converter (version 1.1.0.18) (http://fields.scripps.edu/rawconv/) or the AB Sciex MS Data Converter beta 1.1 (AB Sciex, Les Ulis, France). The generated peak lists were searched against the Bos taurus proteome (UniProt database, https://www.uniprot.org)) using an in-house Mascot search engine (Matrix Science, London, UK). The searches were made without specifying a protease and with oxidation (Met) and phosphorylation (ST) as variable modifications. Peptide tolerance was set to 10 ppm and MS/MS tolerance was set to 0.2 Da. […]

Peptide identified in the basolateral chamber of Caco-2 monolayers (transported) (Caco-2, 3 weeks on PET inserts 0.4 μm, TEER above 400 Ω cm^2, A-B, mix of 192 purified milk peptides 0.1 mg/mL apical, HBSS + 10 mM HEPES, LC-MS/MS of basolateral medium, identified in two out of three experiments): identified in the basolateral chamber
Sequence: PIGSENSEKTTMPLW [PIGSENSEKTTMPLW]
Fate of synthetic peptide during transport over Caco-2 monolayers (synthetic peptide 2 µg/mL apical, LC-MS/MS of basal medium): cleaved by carboxypeptidases during the transport

Source: publication PMC7602804 (Nutrients, 2020)
